Experimental data from patent US10710980B2, “Aminopyridine derivatives and their use as selective ALK-2 inhibitors” (priority 2016, dated 2020).
Read-outs that look alike come from different tables or passages of the source.

What was measured:
[1] = biological target: ALK3 (aa198-525) (Homo sapiens (Human), UniProt P36894); assay: ADPGlo biochemical autophosphorylation assay, ALK3; conditions: 15 μm ATP, 60 min at 32° C.
[2] = biological target: ALK1 (aa166-493) (Homo sapiens (Human), UniProt P37023); assay: Caliper biochemical peptide phosphorylation assay, ALK1; conditions: 15 μm ATP, 60 min at 30° C.; read-out: ALK1 EPK (IC50)
Chain of ALK1 (aa166-493) (P37023 166-493): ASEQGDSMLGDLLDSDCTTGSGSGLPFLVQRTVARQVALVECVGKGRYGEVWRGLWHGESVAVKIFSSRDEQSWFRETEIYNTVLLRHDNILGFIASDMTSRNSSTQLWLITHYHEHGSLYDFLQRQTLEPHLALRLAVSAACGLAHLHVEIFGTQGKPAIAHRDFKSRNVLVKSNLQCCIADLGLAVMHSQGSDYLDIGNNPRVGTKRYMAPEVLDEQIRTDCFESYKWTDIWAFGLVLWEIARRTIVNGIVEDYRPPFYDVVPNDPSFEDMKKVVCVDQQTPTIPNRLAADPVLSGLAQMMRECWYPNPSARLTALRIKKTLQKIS

[3] = biological target: T1, wild-type ALK2 (aa172-499) (Homo sapiens (Human), UniProt Q04771); assay: Caliper biochemical peptide phosphorylation assay, ALK2; conditions: 15 μm ATP, 60 min at 30° C.; read-out: ALK2 EPK (IC50)
T1 sequence (Q04771 172-499): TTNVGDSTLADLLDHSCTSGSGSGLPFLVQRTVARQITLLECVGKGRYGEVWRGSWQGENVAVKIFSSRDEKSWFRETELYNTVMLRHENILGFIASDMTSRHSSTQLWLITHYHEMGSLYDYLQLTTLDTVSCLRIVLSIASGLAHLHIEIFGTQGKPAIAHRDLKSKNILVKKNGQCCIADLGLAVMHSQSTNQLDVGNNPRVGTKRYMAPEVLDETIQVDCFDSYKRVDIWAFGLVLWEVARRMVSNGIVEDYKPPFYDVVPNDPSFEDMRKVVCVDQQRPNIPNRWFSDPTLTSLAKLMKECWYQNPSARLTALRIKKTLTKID

[4] = biological target: T1, wild-type ALK2 (aa172-499); assay: ADPGlo biochemical autophosphorylation assay, ALK2; conditions: 15 μm ATP, 60 min at 32° C.
[5] = biological target: ALK5 (aa162-503) (Homo sapiens (Human), UniProt P36897); assay: Caliper biochemical peptide phosphorylation assay, ALK5; conditions: 15 μm ATP, 60 min at 30° C.; read-out: ALK5 EPK (IC50)
Chain of ALK5 (aa162-503) (P36897 162-503): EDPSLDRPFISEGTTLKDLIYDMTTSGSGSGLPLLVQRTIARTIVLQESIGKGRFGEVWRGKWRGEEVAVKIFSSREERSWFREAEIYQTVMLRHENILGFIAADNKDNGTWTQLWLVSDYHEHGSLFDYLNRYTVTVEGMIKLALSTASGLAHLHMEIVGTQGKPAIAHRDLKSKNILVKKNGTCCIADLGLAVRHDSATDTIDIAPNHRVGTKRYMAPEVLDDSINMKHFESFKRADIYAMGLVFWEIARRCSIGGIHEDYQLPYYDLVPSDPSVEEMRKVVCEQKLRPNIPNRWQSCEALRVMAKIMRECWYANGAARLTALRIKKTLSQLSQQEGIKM

[6] = system: BMP response element (BRE) luciferase reporter in HuH7 cells, BMP6 stimulated; assay: BMP signaling reporter gene assay; assay type: cell-based; conditions: Homo sapiens, read-out: MSD BMP RGA IC50
[7] = biological target: ALK6 (aa168-495) (Homo sapiens (Human), UniProt O00238); assay: Caliper biochemical peptide phosphorylation assay, ALK6; conditions: 15 μm ATP, 60 min at 30° C.; read-out: ALK6 EPK (IC50)
Chain of ALK6 (aa168-495) (O00238 168-495): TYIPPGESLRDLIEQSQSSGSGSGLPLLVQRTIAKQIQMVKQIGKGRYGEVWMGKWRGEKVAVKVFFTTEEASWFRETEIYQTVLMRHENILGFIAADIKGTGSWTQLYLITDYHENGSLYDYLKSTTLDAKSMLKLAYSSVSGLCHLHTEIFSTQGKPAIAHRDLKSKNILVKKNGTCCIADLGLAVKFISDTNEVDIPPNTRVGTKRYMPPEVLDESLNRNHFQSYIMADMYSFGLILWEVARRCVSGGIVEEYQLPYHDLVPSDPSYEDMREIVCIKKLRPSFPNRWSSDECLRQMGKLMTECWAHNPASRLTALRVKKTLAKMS

[8] = Huh-7, HuH7 BRE-luciferase, BMP6 100 ng/ml, 5 hours

Chain of ALK3 (aa198-525) (P36894 198-525): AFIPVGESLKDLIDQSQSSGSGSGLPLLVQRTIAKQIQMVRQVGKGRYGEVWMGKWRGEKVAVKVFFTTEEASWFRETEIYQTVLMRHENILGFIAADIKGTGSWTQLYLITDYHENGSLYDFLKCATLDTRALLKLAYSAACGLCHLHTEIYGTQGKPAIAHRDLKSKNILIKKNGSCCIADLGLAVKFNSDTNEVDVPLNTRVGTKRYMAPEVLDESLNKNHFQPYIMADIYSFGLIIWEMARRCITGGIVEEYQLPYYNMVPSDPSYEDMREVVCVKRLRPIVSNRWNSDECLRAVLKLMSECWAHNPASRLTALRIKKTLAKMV

SMILES	IC50 [1]	IC50 [2]	IC50 [3]	IC50 [4]	IC50 [5]	IC50 [6, 8]	IC50 [7]	IC50 ([6]; Huh-7, 5 h)
C[C@H](c1ccc(-c2cnc(N)c(C(=O)N[C@H]3CC[C@H](O)CC3)c2)c(Cl)c1)N1CC2(COC2)C1 [Example 55, 5-(4-((R)-1-(2-oxa-6-azaspiro[3.3]heptan-6-yl)ethyl)-2-chlorophenyl)-2-amino-N-((1r,4R)-4-hydroxycyclohexyl)nicotinamide]	2440 nM	627 nM	30 nM	22 nM	5030 nM	543 nM	2900 nM	–
CC#CCN1C[C@@H]2C[C@]2(c2ccc(-c3cnc(N)c(C(=O)N[C@H]4CC[C@H](O)CC4)c3)cc2)C1 [Example 37, 2-amino-5-(4-((1S,5R)-3-(but-2-yn-1-yl)-3-azabicyclo[3.1.0]hexan-1-yl)phenyl)-N-((1r,4S)-4-hydroxycyclohexyl)nicotinamide]	960 nM	100 nM	27 nM	8 nM	1100 nM	37 nM	1700 nM	–
Nc1ncc(-c2ccc([C@]34C[C@H]3CN(C3CCOCC3)C4)cc2)cc1C(=O)NC12CCC(O)(CC1)CC2 [Example 42, 2-amino-N-(4-hydroxybicyclo[2.2.2]octan-1-yl)-5-(4-((1S,5R)-3-(tetrahydro-2H-pyran-4-yl)-3-azabicyclo[3.1.0]hexan-1-yl)phenyl)nicotinamide]	1300 nM	540 nM	29 nM	26 nM	4770 nM	235 nM	4100 nM	–
C#CCN1C[C@@H]2C[C@]2(c2ccc(-c3cnc(N)c(C(=O)N[C@H]4CC[C@H](O)CC4)c3)cc2)C1 [Example 53, 2-amino-N-((1r,4S)-4-hydroxycyclohexyl)-5-(4-((1S,5R)-3-(prop-2-yn-1-yl)-3-azabicyclo[3.1.0]hexan-1-yl)phenyl)nicotinamide]	1200 nM	190 nM	32 nM	13 nM	2000 nM	50 nM	2500 nM	–
Nc1ncc(-c2ccc([C@@]34C[C@@H]3CN(C3COC3)C4)cc2)cc1C(=O)NC12CCC(O)(CC1)CC2 [Example 64, 2-amino-N-(4-hydroxybicyclo[2.2.2]octan-1-yl)-5-(4-((1R,5S)-3-(oxetan-3-yl)-3-azabicyclo[3.1.0]hexan-1-yl)phenyl)nicotinamide]	2200 nM	1000 nM	63 nM	110 nM	7500 nM	380 nM	3800 nM	–
Nc1ncc(-c2ccc([C@]34C[C@H]3CN(CCN3CCOCC3)C4)cc2)cc1C(=O)N[C@H]1CC[C@H](O)CC1 [Example 13, 2-amino-N-((1r,4S)-4-hydroxycyclohexyl)-5-(4-((1S,5R)-3-(2-morpholinoethyl)-3-azabicyclo[3.1.0]hexan-1-yl)phenyl)nicotinamide]	1400 nM	140 nM	13 nM	8 nM	3100 nM	78 nM	3000 nM	–
Nc1ncc(-c2ccc([C@]34C[C@H]3CN(C3CCC(F)(F)CC3)C4)cc2)cc1C(=O)NC12CCC(O)(CC1)CC2 [Example 35, 2-amino-5-(4-((1S,5R)-3-(4,4-difluorocyclohexyl)-3-azabicyclo[3.1.0]hexan-1-yl)phenyl)-N-(4-hydroxybicyclo[2.2.2]octan-1-yl)nicotinamide]	903 nM	283 nM	21 nM	17 nM	5720 nM	73 nM	4500 nM	–
Nc1ncc(-c2ccc([C@]34C[C@H]3CN(C3COC3)C4)cc2)cc1C(=O)NC12CCC(O)(CC1)CC2 [Example 63, 2-amino-N-(4-hydroxybicyclo[2.2.2]octan-1-yl)-5-(4-((1S,5R)-3-(oxetan-3-yl)-3-azabicyclo[3.1.0]hexan-1-yl)phenyl)nicotinamide]	1800 nM	940 nM	57 nM	91 nM	6700 nM	390 nM	3500 nM	–
Nc1ncc(-c2ccc([C@@]34C[C@@H]3CN(CCC(F)(F)F)C4)cc2)cc1C(=O)N[C@H]1CC[C@H](O)CC1 [Example 47, 2-amino-N-((1r,4R)-4-hydroxycyclohexyl)-5-(4-((1R,5S)-3-(3,3,3-trifluoropropyl)-3-azabicyclo[3.1.0]hexan-1-yl)phenyl)nicotinamide]	1300 nM	290 nM	25 nM	21 nM	4700 nM	130 nM	3500 nM	–
Nc1ncc(-c2ccc(CN3CC4(CCC4)C3)cc2)cc1C(=O)N[C@H]1CC[C@H](O)CC1 [Example 23, 5-(4-(2-azaspiro[3.3]heptan-2-ylmethyl)phenyl)-2-amino-N-((1r,4r)-4-hydroxycyclohexyl)nicotinamide]	1600 nM	250 nM	18 nM	9 nM	2700 nM	–	2400 nM	23 nM
Nc1ncc(-c2ccc([C@@]34C[C@@H]3CN(C3CCOCC3)C4)cc2)cc1C(=O)NC12CC(CO)(C1)C2 [Example 30, 2-amino-N-(3-(hydroxymethyl)bicyclo[1.1.1]pentan-1-yl)-5-(4-((1R,5S)-3-(tetrahydro-2H-pyran-4-yl)-3-azabicyclo[3.1.0]hexan-1-yl)phenyl)nicotinamide]	500 nM	210 nM	22 nM	7 nM	4000 nM	68 nM	2800 nM	–
C[C@@H]1CCCN1Cc1ccc(-c2cnc(N)c(C(=O)N[C@H]3CC[C@](C)(O)CC3)c2)c(F)c1 [Example 56, 2-amino-5-(2-fluoro-4-(((R)-2-methylpyrrolidin-1-yl)methyl)phenyl)-N-((1r,4R)-4-hydroxy-4-methylcyclohexyl)nicotinamide]	9900 nM	930 nM	30 nM	28 nM	5800 nM	285 nM	10000 nM	–

Second part, led by results:

IC50 [1]	IC50 [2]	IC50 [3]	IC50 [4]	IC50 [5]	IC50 [6, 8]	IC50 [7]	SMILES	IC50 ([6]; Huh-7, 5 h)
15100 nM	9800 nM	170 nM	190 nM	10000 nM	860 nM	10000 nM	C[C@@H]1CCCN1Cc1ccc(-c2cnc(N)c(C(=O)N[C@H]3CC[C@](C)(O)CC3)c2)cc1Cl [Example 85, 2-amino-5-(3-chloro-4-(((R)-2-methylpyrrolidin-1-yl)methyl)phenyl)-N-((1r,4R)-4-hydroxy-4-methylcyclohexyl)nicotinamide]	–
1200 nM	190 nM	56 nM	15 nM	10000 nM	910 nM	6200 nM	Nc1ncc(-c2ccc([C@]34C[C@H]3CN(C(CF)CF)C4)cc2)cc1C(=O)N[C@H]1CC[C@H](O)CC1 [Example 66, 2-amino-5-(4-((1S,5R)-3-(1,3-difluoropropan-2-yl)-3-azabicyclo[3.1.0]hexan-1-yl)phenyl)-N-((1r,4S)-4-hydroxycyclohexyl)nicotinamide]	–
2400 nM	580 nM	44 nM	82 nM	1700 nM	415 nM	10000 nM	CN1CCN(CCNC(=O)c2ccc(-c3cnc(N)c(C(=O)NC4CCCCC4)c3)cc2)CC1 [Example 65, 2-amino-N-cyclohexyl-5-(4-((2-(4-methylpiperazin-1-yl)ethyl)carbamoyl)phenyl)nicotinamide]	–
3100 nM	1100 nM	52 nM	41 nM	5200 nM	1100 nM	9000 nM	Nc1ncc(-c2ccc(C(=O)N3CCOCC3)cc2)cc1C(=O)NC1CCCCC1 [Example 69, 2-amino-N-cyclohexyl-5-(4-(morpholine-4-carbonyl)phenyl)nicotinamide]	–
1800 nM	210 nM	140 nM	11 nM	4600 nM	330 nM	7700 nM	COCCN1C[C@H]2C[C@@]2(c2ccc(-c3cnc(N)c(C(=O)N[C@H]4CC[C@H](O)CC4)c3)cc2)C1 [Example 75, 2-amino-N-((1r,4R)-4-hydroxycyclohexyl)-5-(4-((1R,5S)-3-(2-methoxyethyl)-3-azabicyclo[3.1.0]hexan-1-yl)phenyl)nicotinamide]	–
22800 nM	20200 nM	810 nM	990 nM	20200 nM	9300 nM	20200 nM	Nc1ncc(-c2cccc(C(=O)N3CCN(CCO)CC3)c2)cc1C(=O)NC1CCCCC1 [Example 88, 2-amino-N-cyclohexyl-5-(3-(4-(2-hydroxyethyl)piperazine-1-carbonyl)phenyl)nicotinamide]	–
15100 nM	3000 nM	110 nM	150 nM	10000 nM	1250 nM	10000 nM	C[C@@H]1CCCN1Cc1ccc(-c2cnc(N)c(C(=O)N[C@H]3CC[C@](C)(O)CC3)c2)c(Cl)c1 [Example 81, 2-amino-5-(2-chloro-4-(((R)-2-methylpyrrolidin-1-yl)methyl)phenyl)-N-((1r,4R)-4-hydroxy-4-methylcyclohexyl)nicotinamide]	–
